Measured values as given in BindingDB's records for doi:10.1021/jm00122a003 (Tanabe Seiyaku, 1989).

Experiments:
[1] = target: Angiotensin-converting enzyme (Sus scrofa); assay: Inhibitory activity on Angiotensin I converting enzyme (ACE) obtained from pig renal cortex and hippuryl-histidyl-leucine as substrate
[2] = target: Angiotensin-converting enzyme (Sus scrofa); assay: as above; remark: listed apart in the source

Row | IC50 [1] [nM] | IC50 [2] [nM] | SMILES
1 | 2.3 |  | CC[C@H](N[C@@H](CCc1ccccc1)C(=O)O)C(=O)N1C(=O)N(Cc2ccccc2)C[C@H]1C(=O)O
2 | 5100 |  | CCCCCCCC[C@H](N[C@@H](C)C(=O)N1C(=O)N(C)C[C@H]1C(=O)O)C(=O)OCC
3 | 1.7 |  | C[C@H](N[C@@H](CCc1ccccc1)C(=O)O)C(=O)N1C(=O)N(Cc2ccccc2)C[C@H]1C(=O)O
4 | 6.7 |  | CCCCN1C[C@@H](C(=O)O)N(C(=O)[C@H](C)N[C@@H](CCc2ccccc2)C(=O)O)C1=O
5 | 3.3 |  | CC(C)CC[C@H](N[C@@H](C)C(=O)N1C(=O)N(Cc2ccccc2)C[C@H]1C(=O)O)C(=O)O
6 | 7900 |  | CCOC(=O)[C@H](CCc1ccccc1)N[C@@H](C)C(=O)N1C(=O)N(Cc2ccccc2)C[C@H]1C(=O)O
7 | 2.1 |  | CC(C)C[C@H](N[C@@H](C)C(=O)N1C(=O)N(Cc2ccccc2)C[C@H]1C(=O)O)C(=O)O
8 | 2200 |  | CCCCCCCC[C@H](N[C@@H](C)C(=O)N1C(=O)N(Cc2ccccc2)C[C@H]1C(=O)O)C(=O)OCC
9 | 2.4 |  | CCCCCCCC[C@H](N[C@@H](CC)C(=O)N1C(=O)N(C)C[C@H]1C(=O)O)C(=O)O
10 | 3.5 |  | C[C@H](N[C@@H](CCc1ccccc1)C(=O)O)C(=O)N1C(=O)NC[C@H]1C(=O)O
11 | 2400 |  | C[C@@H](N[C@@H](CCc1ccccc1)C(=O)O)C(=O)N1C(=O)N(Cc2ccccc2)C[C@H]1C(=O)O
12 | 11 |  | C[C@H](N[C@@H](Cc1ccccc1)C(=O)O)C(=O)N1C(=O)N(Cc2ccccc2)C[C@H]1C(=O)O
13 |  | 2.1 | CCCCCCCC[C@H](N[C@@H](CC)C(=O)N1C(=O)N(Cc2ccccc2)C[C@H]1C(=O)O)C(=O)O
14 | 1.5 |  | CCCCCCCC[C@H](N[C@@H](C)C(=O)N1C(=O)N(Cc2ccccc2)C[C@H]1C(=O)O)C(=O)O
15 |  | 1500 | C[C@H](N)C(=O)N1C(=O)N(Cc2ccccc2)C[C@H]1C(=O)O
